# PMC5478271, “Chemical structure-guided design of dynapyrazoles, cell-permeable dynein inhibitors with a unique mode of action” (eLife, 2017)
# Tests used:
# GFP-dynein 1 = biological target: T1, GFP-dynein 1 (Homo sapiens, UniProt Q14204); assay: Basal ATPase activity of GFP-dynein 1; format: biochemical; conditions: 40 µM compound, 1 mM MgATP, 2% DMSO; control 0.62 ± 0.2 s^−1
# T1 construct: (AA 1320–4646 with additional valine [at position 4647], uniprot Q14204); protein A tag (followed by TEV-cleavable linker) (N, cleaved yes); made in house; host or cells: insect cells (baculovirus)
# Description: ATPase assays using recombinant Dynein 1 (wild-type and mutants) were performed in a buffer containing 25 mM PIPES pH7.0, 30 mM KCl, 1 mM EGTA, 5 mM MgCl2, 0.01% triton X-100, 1 mM DTT, and 20–30 µM taxol (if microtubules were present). For typical conditions, enzyme was incubated with varying concentrations of inhibitor in buffer containing 2% DMSO for 10 min in a volume of 10 μL. When microtubules were present, they were polymerized by stepwise addition of taxol and high concentrations of DMSO (30% final during polymerization reactions), and re-suspended following centrifugation in ATPase buffer to a concentration up to threefold above the final concentration used in the reaction (bovine brain tubulin, no fluoresecent label). For microtubule-stimulated reactions in dose-response format, reactions were assembled by 1:1:1 mixture of 3x enzyme stock, 3x compound stock (in buffer with 6% DMSO), and 3x microtubule stock to each well. For microtubule-stimulated ATPase assays at tubulin concentrations > 2.5 µM, enzyme stock was supplemented with compound stock in pure DMSO (resulting in an intermediate DMSO concentration of 6%), and then the microtubule stock was added. […]
# Assembled reaction mixtures (including enzyme, compound, and microtubules, if present) were incubated for 10 min before addition of ATP. […] The fraction of γ-phosphate hydrolyzed in each condition was quantified using FIJI.
# [1] = tested on: Gli-driven luciferase reporter in NIH-3T3 (Shh-Light2) cells; assay: Hedgehog pathway activity, Gli-driven luciferase reporter (Shh-Light2 cells, SAG-stimulated); format: cell-based; conditions: for Concentration at which cell death was observed: 28 hr time course, ~10-fold above the IC50; for IC50: Shh Light2, SAG 500 nM, low serum (0.5% BCS), 28–32 hr, read-out: IC50, inhibition of Gli-driven luciferase reporter expression
# Source text: We next examined the inhibition of dynein 2 by dynapyrazole-A in cell-based assays. In cell culture, serum starvation results in the formation of primary cilia, which are required for Hedgehog signaling ([Goetz and Anderson, 2010]). Quiescent cells respond to the Hedgehog ligand or to a synthetic agonist and pathway activity can be measured using a Gli-driven luciferase reporter ([Taipale et al., 2000]; [Chen et al., 2002]). Expression of Hedgehog-driven luciferase reporter was inhibited by dynapyrazole-A (Compound 8, IC50: 1.9 ± 0.6 µM) ~8 fold more potently than ciliobrevin D (IC50: 15.5 ± 3 µM, Figure 3I). […] In this assay, we have also observed cell death at high ciliobrevin D concentrations (200 µM,~10x above its IC50). To stimulate Hedgehog pathway activity, we used the synthetic agonist of smoothened (SAG) ([Chen et al., 2002]), which competes with many known Hedgehog pathway inhibitors for binding to Smoothened, a key protein in this signaling pathway ([Sharpe et al., 2015]). As dynapyrazole-A inhibits Hedgehog signaling at high SAG concentrations (500 nM), it is likely to act downstream of Smoothened, as was previously noted for ciliobrevins and consistent with inhibition of dynein 2 ([Hyman et al., 2009]; [Firestone et al., 2012]).
# NIH-3T3 cells stably expressing a luciferase reporter downstream of a Gli binding site (Shh-Light2 cells, RRID: CVCL_2721) were maintained in DMEM with 10% bovine calf serum (BCS). Cells were seeded at a density of 30,000 cells/well in 96-well tissue culture-treated plates (Corning, cat #353072) in 100 μL in DMEM +10% BCS, and incubated for 48 hr ([Taipale et al., 2000]). Wells were washed briefly with PBS. Next 100 μL of low serum media (DMEM +0.5% BCS) containing smoothened agonist (SAG, 500nM), and either solvent control (0.2% DMSO) or test compound (serial threefold dilutions of each inhibitor starting from 20 μM) were added to the wells. After 28–32 hr of inhibitor treatment, cells were washed with 50 μL PBS and lysed for >30 min in 30 μL Passive Lysis Buffer (Promega Dual Luciferase kit, cat E1910). 5 μL of each lysate was transferred to white, solid-bottom 96-well plates (Greiner, cat #655075), followed by rapid addition (within 30 s) of 30 μL of Luciferase Assay Reagent using a multichannel pipette. Luminescence for each condition was read using a Synergy Neo plate reader (5 s integration time per well). Cell line identity was confirmed by measurement of the degree of response to Hedgehog pathway stimulation by the synthetic agonist SAG and using previously-published values from our groups and others as references ([Firestone et al., 2012]; [Hyman et al., 2009]).
# Curve fitting: Where dose-response experiments are fit and IC50values given, these are obtained as follows: Individual experiments are treated as separate. The data are fit to a sigmoidal dose-response curve of the form (Y=Bottom + (Top-Bottom)/(1 + 10^((LogIC50-X)*HillSlope)). All variables were allowed to float freely with the exception of the variable denoted ‘bottom’, which was constrained to be >0. The separate IC50 values obtained from fits to each individual experiment's dataset were averaged together and presented as a mean with range (Figure 3G and H) or standard deviation (Figures 3I, 5D, 6E and K).
# T1 sequence (Q14204 with tags, fused parts or gaps): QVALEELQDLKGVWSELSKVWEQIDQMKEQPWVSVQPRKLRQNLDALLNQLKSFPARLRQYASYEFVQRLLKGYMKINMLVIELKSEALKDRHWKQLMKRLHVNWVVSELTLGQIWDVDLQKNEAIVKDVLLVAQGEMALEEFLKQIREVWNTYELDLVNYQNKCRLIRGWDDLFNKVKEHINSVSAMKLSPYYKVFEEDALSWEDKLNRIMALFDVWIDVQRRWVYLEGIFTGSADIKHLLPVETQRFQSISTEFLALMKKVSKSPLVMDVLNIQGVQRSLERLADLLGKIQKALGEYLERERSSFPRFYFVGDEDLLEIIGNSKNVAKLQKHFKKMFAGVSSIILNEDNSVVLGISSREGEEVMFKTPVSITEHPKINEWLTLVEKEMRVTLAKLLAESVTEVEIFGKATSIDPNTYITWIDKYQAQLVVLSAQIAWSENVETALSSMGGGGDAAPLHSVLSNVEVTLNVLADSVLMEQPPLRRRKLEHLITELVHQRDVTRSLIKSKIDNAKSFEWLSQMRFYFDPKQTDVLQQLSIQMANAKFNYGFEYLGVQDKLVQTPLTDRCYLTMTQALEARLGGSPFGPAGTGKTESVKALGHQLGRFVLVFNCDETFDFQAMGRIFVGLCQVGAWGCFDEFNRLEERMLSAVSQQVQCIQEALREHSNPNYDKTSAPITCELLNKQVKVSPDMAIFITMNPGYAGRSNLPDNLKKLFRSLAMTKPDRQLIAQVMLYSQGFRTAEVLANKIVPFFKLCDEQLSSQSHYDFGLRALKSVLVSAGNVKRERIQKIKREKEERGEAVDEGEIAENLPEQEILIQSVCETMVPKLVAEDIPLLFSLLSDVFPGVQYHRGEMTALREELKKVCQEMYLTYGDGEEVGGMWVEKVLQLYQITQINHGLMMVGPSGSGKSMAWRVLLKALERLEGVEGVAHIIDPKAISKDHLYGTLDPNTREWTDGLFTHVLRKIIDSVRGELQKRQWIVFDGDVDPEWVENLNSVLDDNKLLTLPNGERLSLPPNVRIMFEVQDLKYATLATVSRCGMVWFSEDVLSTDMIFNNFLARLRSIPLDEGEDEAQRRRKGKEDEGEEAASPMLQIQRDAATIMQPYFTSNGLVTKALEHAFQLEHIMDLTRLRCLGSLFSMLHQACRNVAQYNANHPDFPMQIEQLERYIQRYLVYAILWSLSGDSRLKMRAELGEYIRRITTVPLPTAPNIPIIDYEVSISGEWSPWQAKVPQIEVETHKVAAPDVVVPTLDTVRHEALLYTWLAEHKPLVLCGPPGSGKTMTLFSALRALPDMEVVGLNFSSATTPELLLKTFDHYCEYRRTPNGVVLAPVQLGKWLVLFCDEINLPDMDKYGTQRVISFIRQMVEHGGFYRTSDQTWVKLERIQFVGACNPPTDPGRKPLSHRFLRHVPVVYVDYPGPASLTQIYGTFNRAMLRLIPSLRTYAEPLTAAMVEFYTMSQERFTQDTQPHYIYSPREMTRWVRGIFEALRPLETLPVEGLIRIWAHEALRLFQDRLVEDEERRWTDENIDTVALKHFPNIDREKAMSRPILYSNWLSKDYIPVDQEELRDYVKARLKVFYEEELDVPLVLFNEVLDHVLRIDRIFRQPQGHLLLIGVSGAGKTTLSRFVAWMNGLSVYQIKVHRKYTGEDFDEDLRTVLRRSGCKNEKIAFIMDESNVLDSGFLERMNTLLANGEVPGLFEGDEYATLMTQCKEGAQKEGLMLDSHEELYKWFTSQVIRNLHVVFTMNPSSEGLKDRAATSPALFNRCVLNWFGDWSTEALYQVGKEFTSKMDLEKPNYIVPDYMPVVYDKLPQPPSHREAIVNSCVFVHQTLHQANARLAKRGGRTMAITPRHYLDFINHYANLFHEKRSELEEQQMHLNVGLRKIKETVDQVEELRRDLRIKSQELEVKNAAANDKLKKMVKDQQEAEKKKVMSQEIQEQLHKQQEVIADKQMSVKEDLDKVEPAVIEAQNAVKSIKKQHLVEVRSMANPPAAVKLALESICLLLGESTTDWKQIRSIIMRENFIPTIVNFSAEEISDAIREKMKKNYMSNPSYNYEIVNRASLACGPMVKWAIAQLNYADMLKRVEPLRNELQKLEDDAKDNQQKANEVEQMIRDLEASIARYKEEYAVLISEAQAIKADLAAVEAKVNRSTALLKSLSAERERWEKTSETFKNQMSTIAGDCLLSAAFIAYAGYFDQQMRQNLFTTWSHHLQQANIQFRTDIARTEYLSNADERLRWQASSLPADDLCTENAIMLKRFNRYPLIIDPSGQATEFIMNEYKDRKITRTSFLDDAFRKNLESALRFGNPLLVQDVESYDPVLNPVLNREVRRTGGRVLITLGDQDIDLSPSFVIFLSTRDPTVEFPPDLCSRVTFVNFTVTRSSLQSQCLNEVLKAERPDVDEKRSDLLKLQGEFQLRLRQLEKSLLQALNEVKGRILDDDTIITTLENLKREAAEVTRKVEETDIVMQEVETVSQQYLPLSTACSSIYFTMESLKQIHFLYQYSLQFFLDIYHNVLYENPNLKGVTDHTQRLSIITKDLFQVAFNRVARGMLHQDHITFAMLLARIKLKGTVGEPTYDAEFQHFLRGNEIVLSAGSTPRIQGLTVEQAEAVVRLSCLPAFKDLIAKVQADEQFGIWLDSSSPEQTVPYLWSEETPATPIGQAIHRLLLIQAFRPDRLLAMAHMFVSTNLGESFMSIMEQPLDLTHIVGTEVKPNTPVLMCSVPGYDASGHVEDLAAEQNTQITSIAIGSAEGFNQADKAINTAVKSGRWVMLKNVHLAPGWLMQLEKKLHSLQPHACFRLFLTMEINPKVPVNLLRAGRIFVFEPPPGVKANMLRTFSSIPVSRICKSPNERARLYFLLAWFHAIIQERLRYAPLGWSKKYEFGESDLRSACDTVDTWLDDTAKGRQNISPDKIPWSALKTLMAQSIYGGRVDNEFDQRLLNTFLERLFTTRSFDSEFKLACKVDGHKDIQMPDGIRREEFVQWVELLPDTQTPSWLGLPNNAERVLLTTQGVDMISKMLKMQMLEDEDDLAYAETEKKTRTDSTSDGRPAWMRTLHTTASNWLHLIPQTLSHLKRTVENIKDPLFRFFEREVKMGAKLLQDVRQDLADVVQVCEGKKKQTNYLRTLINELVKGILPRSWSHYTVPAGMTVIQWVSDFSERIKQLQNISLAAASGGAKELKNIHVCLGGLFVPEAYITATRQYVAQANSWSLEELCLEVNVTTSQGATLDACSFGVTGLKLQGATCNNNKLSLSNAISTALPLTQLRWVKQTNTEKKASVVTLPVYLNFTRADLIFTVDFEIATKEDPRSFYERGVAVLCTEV
SMILES,inhibition at 40 µM (GFP-dynein 1),Concentration at which cell death was observed [1],IC50 [1],Inhibition of basal ATPase activity of GFP-dynein 1 (GFP-dynein 1),"Potency relative to ciliobrevin D, Hedgehog-driven luciferase reporter ([1]; more potent than ciliobrevin D)"
"N#C/C(C(=O)c1ccc(Cl)cc1Cl)=C1\NC(=O)c2ccc(Cl)cc2N1 [ciliobrevin D, reference compound]",~70%,200 µM,15.5 ± 3 µM,,
"N#Cc1c(C2(c3ccc(Cl)cc3)CC2)nn2c1[nH]c(=O)c1cc(I)ccc12 [Compound 8, 2-[1-(4-chlorophenyl)cyclopropyl]-7-iodo-5-oxo-4H-pyrazolo[1,5-a]quinazoline-3-carbonitrile]",,20 µM,1.9 ± 0.6 µM,did not inhibit,~ 8 fold
